# In article PMC12667295, “A surrogate barrier model for high-throughput blood-brain barrier permeability prediction: integrating LLC-PK1-MOCK/MDR1 Cells and lysosomal trapping correction” (Drug Delivery, 2025):
# Where two headings read alike, the source gives them in different places.
# What was measured:
# [1] = in vivo; conditions: rat
# Text: In vivo unbound brain distribution data (Kp,uu,Brain) for 16 drugs and total brain distribution data (Kp,Brain) for 16 drugs was acquired from literature. […] For each tested compound, fifteen rats were randomly divided into five groups of three rats each. […] The time of execution of the rats by CO2 inhalation after administration was optimized according to the in vivo elimination rate to achieve five concentrations of different time points. After the rats were euthanized, cardiac puncture was performed immediately to remove as much whole blood as possible (~7 ml) from the systemic circulation (Quantitatively aliquot 0.2 ml of whole blood for the determination of drug concentration in plasma). Afterwards, the brain tissue was collected immediately and rinsed repeatedly with ice-cold saline 3 times. Then, the surface saline was blotted dry with clean filter paper to remove as much residual drug in the blood vessels as possible. Plasma samples were prepared by centrifugation of the blood samples at 2,500 g for 10 minutes at 4 °C. All brain samples were homogenized by adding 4-fold volume water. All samples were stored at -40 °C before LC-MS/MS analysis. […] The brain tissue partition coefficient (Kp, brain) and brain-to-plasma unbound drug partition ratio (Kp,uu, brain) are calculated according to the following formulas, respectively: Kp,brain=AUC(0−∞,brain)/AUC(0−∞,plasma)Kp,uu,brain=Kp,brain×(fu,tissue/fu,plasma)
# Free brain-to-plasma distribution coefficients (Kp,uu,brain) of 41 drugs. Brain distribution coefficients (Kp,uu,brain) were calculated for 41 drugs. […] Plasma and brain concentration-time profiles were generated, and AUC(0-t) values for both matrices were calculated using WinNolin 8.1. Kp,brain was derived as the ratio of brain-to-plasma AUC(0-t).
# Kp,uu,brain values were computed by normalizing Kp,brain to unbound fractions (fu,plasma and fu,brain).
# [2] = tested on: P-gp (human MDR1); experiment: Bidirectional transport across LLC-PK1-MDR1 monolayer stably expressing human MDR1 (P-gp) (Transwell); conditions: pig;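 note: 2 h incubation at 37 °C, receiver HBSS with 10 mM Hepes plus 1% BSA, LC-MS/MS of donor and receiver, recovery as receiver plus donor amount over initial donor amount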
# [3] = in vitro
# Description: (§1) Stocks (10 mM) of test compounds were diluted to 5 μM with plasma or tissue homogenate and dialyzed at 37 °C for 6 hours in a shaking incubator. After incubation aliquots of both plasma or tissue homogenate and buffer from the device were taken and added to equal volumes of blank buffer and plasma or tissue homogenate respectively. Samples were then diluted in acetonitrile containing an internal standard prior to centrifugation and analysis of the supernatants by LC-MS/MS. The fu, plasma was calculated using Equation 1:(1) fu,plasma=Concbuffer chamber/Concsample chamber
# Rat fraction unbound in brain (fu, brain) was determined as the ratio of concentration in buffer to that in brain.
# (§2) Unbound fractions of test drugs in plasma (fu,plasma) and brain tissue (fu,brain). For compounds with existing rat plasma or brain protein-binding data from literature or internal studies, values were directly adopted.
# [4] = in vitro; conditions: rat, plasma
# Description: as §1, §2
# [5] = in vitro; conditions: pig; for recovery at 2 h, 2 µM: pH 7.4
# [6] = Bidirectional transport across LLC-PK1 MOCK monolayer (Transwell); conditions: pig;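 note: compound quantified by LC-MS/MS in donor and receiver wells, efflux ratio as B-A over A-B Papp, recovery relative to initial donor amount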
# [7] = tested on: P-gp (human MDR1); experiment: in vitro; conditions: pig, LLC-PK1, pH 7.4;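 note: 2 h incubation at 37 °C, receiver HBSS with 10 mM Hepes plus 1% BSA, LC-MS/MS of donor and receiver, recovery as receiver plus donor amount over initial donor amount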
# [8] = cited from earlier work
# [9] = cited from earlier work; remark: listed apart in the source
# [10] = LLC-PK1, pH 7.4, Papp A-B, LLC-PK1 MOCK, 2 µM, 2 h, mean ± s, n = 3, BLQ = below 2 nM
# [11] = footnote b, species not stated, ref https://go.drugbank.com
# [12] = LLC-PK1 MOCK cell monolayer (Transwell)
# [13] = LLC-PK1, pH 7.4, Papp A-B, LLC-PK1-MDR1, 2 µM, 2 h, mean ± s, n = 3
SMILES,"Kp uu ([1]; SD, iv, 1 mg/kg)","Kp ([1]; SD, iv, 1 mg/kg, Kp, Brain)","Papp A→B at 2 h, 2 µM ([2]; LLC-PK1, pH 7.4)","Papp B→A at 2 h, 2 µM ([2]; LLC-PK1, pH 7.4)","fraction unbound at 6 h, 5 µM ([3]; rat, brain homogenate)","fraction unbound at 6 h, 5 µM [4]","Papp A→B at 2 h, 2 µM [6, 10]","recovery at 2 h, 2 µM [7]","Protein binding in plasma [8, 11]","recovery at 2 h, 2 µM [5, 12]","Papp B→A at 2 h, 2 µM ([6]; LLC-PK1, pH 7.4)",Kp uu [1],"efflux ratio at 2 h, 2 µM ([2]; LLC-PK1, pH 7.4)","efflux ratio at 2 h, 2 µM ([6]; LLC-PK1, pH 7.4)","Papp A→B at 2 h, 2 µM [2, 13]",also measured
CCOc1ccc(NC(C)=O)cc1 [Phenacetin],0.768,0.763,36.6 ± 2.48 ×10⁻⁶ cm/s,29 ± 1.19 ×10⁻⁶ cm/s,0.419,0.416,35.2 ± 0.08 ×10⁻⁶ cm/s,–,–,–,–,–,–,–,–,"Papp B→A at 2 h, 2 µM ([5]; LLC-PK1, pH 7.4): 27.2 ± 1.32 ×10⁻⁶ cm/s"
COc1cc([C@@H]2c3cc4c(cc3[C@@H](O[C@@H]3O[C@@H]5CO[C@@H](C)O[C@H]5[C@H](O)[C@H]3O)[C@H]3COC(=O)[C@H]23)OCO4)cc(OC)c1O [Etoposide],–,0.025,0.75 ± 0.1 ×10⁻⁶ cm/s,3.68 ± 0.22 ×10⁻⁶ cm/s,< 0.01,–,–,100 ± 2.47%,97.0^b %,106 ± 0.11%,0.16 ± 0.02 ×10⁻⁶ cm/s,–,–,–,–,"Kp ([1]; SD, iv, 1 mg/kg, Kp,uu,Brian): 0.008"
COCCOC(=O)C1=C(C)NC(C)=C(C(=O)OC(C)C)C1c1cccc([N+](=O)[O-])c1 (stereo not drawn) [Nimodipine],–,–,32.2 ± 1.83 ×10⁻⁶ cm/s,44.5 ± 5.11 ×10⁻⁶ cm/s,< 0.01,–,33.7 ± 2.08 ×10⁻⁶ cm/s,114 ± 5.22%,95.0^b %,109 ± 7.08%,46.2 ± 1.79 ×10⁻⁶ cm/s,< 0.451,1.39,1.37,–,"Kp, Brain ([9]; ref Li [2020]): 2.25"
Cc1ncc2n1-c1ccc(Cl)cc1C(c1ccccc1F)=NC2 [Midazolam],–,–,29.5 ± 1 ×10⁻⁶ cm/s,27 ± 2.23 ×10⁻⁶ cm/s,–,–,–,100 ± 3%,–,–,31.6 ± 5.1 ×10⁻⁶ cm/s,–,0.91,1.32,–,"Kp, Brain ([9]; footnote a, ref Internal data): 2.44^a; Kp uu ([1]; in vivo): 1.42; fraction unbound at 6 h, 5 µM [3]: 0.022; Protein binding in plasma ([8]; footnote a, ref Internal data): 97.0^a %; recovery at 2 h, 2 µM [5]: 99.6 ± 1.73%; Papp A→B at 2 h, 2 µM ([6]; LLC-PK1, pH 7.4): 24.7 ± 0.41 ×10⁻⁶ cm/s"
Cn1c(=O)c2c(ncn2C)n(C)c1=O [Caffeine],–,–,–,33.3 ± 1.49 ×10⁻⁶ cm/s,0.719,0.772,34 ± 1.22 ×10⁻⁶ cm/s,–,–,121 ± 2.48%,34.1 ± 1.49 ×10⁻⁶ cm/s,0.576,–,–,36.4 ± 1.42 ×10⁻⁶ cm/s,"Kp, Brain ([9]; ref Bohnert [2016]): 0.618"
CN/C(=N/CCSCc1nc[nH]c1C)NC#N [Cimetidine],0.008,0.007,–,33.9 ± 4.3 ×10⁻⁶ cm/s,0.655,0.722,0.69 ± 0.07 ×10⁻⁶ cm/s,87.4 ± 9.65%,–,96.9 ± 13.3%,0.28 ± 0.07 ×10⁻⁶ cm/s,–,–,–,1.32 ± 0.31 ×10⁻⁶ cm/s,–
